Experimental data: paper PMC10117764, “The roles of serine hydrolases and serum albumin in alisol B 23-acetate hydrolysis in humans” (Frontiers in Pharmacology, 2023)
Values joined by “and” are separate entries in the source; they are usually repeats but may differ in a detail not shown here. Identical values can stand only once.

What was measured:
[1] = Hydrolytic half-life of AB23A in human liver microsomes; assay type: in vitro ADME; details: human liver microsomes (HLMs), HLMs 0.1 mg/mL, PBS pH 7.4, read-out: t1/2 (hydrolytic/metabolic half-life)
Method: The hydrolytic half-lives (t1/2) of AB23A in human plasma and different human tissue preparations were carried out according to the procedure of in vitro metabolic stability studies ([Ge et al., 2013]). The incubation mixture (1,000 μL) consisted of PBS (pH 7.4), enzyme sources (HLMs/HIMs/human plasma) and AB23A. 25% diluted human plasma was used, the protein concentrations of other tissue microsomes were 0.1 mg/mL. The 100 μL incubation mixture was moved to another containing ice-cold acetonitrile tube at different time points (0, 5, 15, 30, 45, 60, 90, 120 min). All samples were centrifuged for 30 min at 20,000 g 4°C and took the supernatants for LC-UV analysis.
The incubation conditions were as follows: the classic incubation system included 100 mM potassium phosphate buffer (PBS, pH 7.4), enzyme sources, and AB23A. In all incubations, PBS and enzyme sources were pre-incubation at 37 °C for 3 min and the reaction was started by adding AB23A (the organic solvent content at most 1%). After reacting 1 h, ice-cold acetonitrile was added to terminate the reaction and precipitate proteins. The samples were centrifuged for 30 min at 20000 × g, 4 °C, and the supernatants were taken for further LC-UV analysis.

[2] = Hydrolytic half-life of AB23A in pig liver microsomes; assay type: in vitro ADME; details: pig liver microsomes (PLMs), pH 7.4, PLMs 0.10 mg/mL, read-out: T1/2 (hydrolytic half-life)
[3] = Hydrolytic half-life of AB23A in mouse liver microsomes; assay type: in vitro ADME; details: mouse liver microsomes (MLMs), pH 7.4, MLMs 0.10 mg/mL, read-out: T1/2 (hydrolytic half-life)
hCES2A = target: T1, hCES2A (Homo sapiens, UniProt O00748); test: Kinetic analysis of AB23A hydrolysis in hCES2A; assay type: in vitro ADME; details: 1 h incubation
T1 construct: 10xHis; made in house; host or cells: HEK293-F cells, pTT5 vector, purified from conditioned medium
T1 sequence (O00748 27-559): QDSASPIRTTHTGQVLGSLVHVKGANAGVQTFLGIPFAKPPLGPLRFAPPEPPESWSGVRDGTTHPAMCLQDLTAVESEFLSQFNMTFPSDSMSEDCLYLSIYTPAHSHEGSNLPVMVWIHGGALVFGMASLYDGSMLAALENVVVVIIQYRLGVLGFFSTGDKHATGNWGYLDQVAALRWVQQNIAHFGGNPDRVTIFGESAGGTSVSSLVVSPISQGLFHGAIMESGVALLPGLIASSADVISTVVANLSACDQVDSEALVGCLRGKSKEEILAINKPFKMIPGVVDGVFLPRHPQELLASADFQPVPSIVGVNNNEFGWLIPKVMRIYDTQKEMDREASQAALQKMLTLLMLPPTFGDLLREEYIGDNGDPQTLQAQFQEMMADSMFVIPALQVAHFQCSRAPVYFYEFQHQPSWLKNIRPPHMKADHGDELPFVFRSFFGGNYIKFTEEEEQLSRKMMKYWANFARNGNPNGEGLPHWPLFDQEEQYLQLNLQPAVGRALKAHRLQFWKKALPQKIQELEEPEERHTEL
Method: (§1) The enzymatic kinetics of AB23A hydrolysis in different tissue preparations (HLMs, HIMs, human plasma) and human recombinant enzymes (hCES1A, hCES2A, hSA, hBchE) were analyzed. The incubation system (200 μL) consisted of PBS, each tested enzyme, and AB23A (ranging from 0 to 1,000 μM). After incubating for 1 h, the supernatants were then used for LC-UV analysis. The kinetic parameters of AB23A hydrolysis were fitted by the following Michaelis−Menten Eq. 1 ([Zhang et al., 2022]). V=(Vmax×[S])⁄(Km+[S]) (1) Here, K m is the Michaelis constant of AB23A hydrolysis, V max is the maximum velocity of AB23A hydrolysis, V max /K m is used to calculate the intrinsic clearance (CL int ).

hBchE = target: T2, hBchE (Homo sapiens, UniProt P06276); test: Kinetic analysis of AB23A hydrolysis in hBchE; assay type: in vitro ADME; details: 1 h incubation
T2 construct: purchased Sigma-Aldrich Lot SLCG5158
T2 sequence (P06276 29-602): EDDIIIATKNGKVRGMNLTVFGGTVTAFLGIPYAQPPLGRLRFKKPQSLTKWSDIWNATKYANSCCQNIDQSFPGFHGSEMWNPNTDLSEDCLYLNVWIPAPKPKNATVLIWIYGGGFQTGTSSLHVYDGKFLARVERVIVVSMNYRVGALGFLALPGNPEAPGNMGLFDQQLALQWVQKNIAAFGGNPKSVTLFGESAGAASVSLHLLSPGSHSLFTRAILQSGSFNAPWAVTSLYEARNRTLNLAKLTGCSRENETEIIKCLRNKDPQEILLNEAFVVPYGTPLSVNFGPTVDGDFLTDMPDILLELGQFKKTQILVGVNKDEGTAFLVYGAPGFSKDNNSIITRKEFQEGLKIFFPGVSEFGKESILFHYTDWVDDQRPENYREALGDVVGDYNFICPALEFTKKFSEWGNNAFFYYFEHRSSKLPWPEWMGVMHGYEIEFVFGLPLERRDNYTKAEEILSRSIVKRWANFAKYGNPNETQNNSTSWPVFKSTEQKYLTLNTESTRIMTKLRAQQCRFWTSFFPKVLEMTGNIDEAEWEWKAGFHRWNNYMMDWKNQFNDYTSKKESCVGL
Method: as §1

[4] = Kinetic analysis of AB23A hydrolysis in HLMs; assay type: in vitro ADME, human
Method: as §1

[5] = Kinetic analysis of AB23A hydrolysis in human plasma; assay type: in vitro ADME; details: 25% dilution
Method: as §1

hSA = target: T3, hSA (Homo sapiens, UniProt P02768); test: Identification of the modification sites of hSA by AB23A (LC-MS/MS of tryptic peptides); details: hSA 1 mg/mL, AB23A 50 μM, 37°C; following co-incubation
T3 construct: purchased Sigma-Aldrich Lot#SLCC9268
T3 sequence (P02768 25-609): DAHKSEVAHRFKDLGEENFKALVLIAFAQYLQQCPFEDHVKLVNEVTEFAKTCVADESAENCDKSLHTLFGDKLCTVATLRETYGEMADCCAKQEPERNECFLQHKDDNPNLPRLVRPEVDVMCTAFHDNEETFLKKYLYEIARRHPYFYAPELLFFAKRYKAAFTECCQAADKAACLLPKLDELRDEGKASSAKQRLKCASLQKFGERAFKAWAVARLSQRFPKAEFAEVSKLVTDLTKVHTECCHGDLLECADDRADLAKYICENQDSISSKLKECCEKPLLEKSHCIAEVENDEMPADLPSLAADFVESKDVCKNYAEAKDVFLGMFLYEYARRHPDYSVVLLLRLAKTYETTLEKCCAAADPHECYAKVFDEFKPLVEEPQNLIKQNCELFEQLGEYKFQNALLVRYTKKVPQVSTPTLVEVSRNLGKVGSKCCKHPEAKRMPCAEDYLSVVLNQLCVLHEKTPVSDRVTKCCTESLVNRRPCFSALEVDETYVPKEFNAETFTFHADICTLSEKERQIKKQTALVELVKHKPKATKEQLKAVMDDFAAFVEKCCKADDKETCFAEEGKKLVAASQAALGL
Method: […] The soluble impurities and unbound molecules were washed by ultrapure water (200 μL) ([Nel et al., 2015]). After denaturation for 1 h in 8 M urea solution at 37°C, the mixture was alkylated with dithiothreitol and iodoacetamide in the dark, washed twice with 200 μL ultrapure water, and finally washed with 200 μL 50 mM ammonium bicarbonate. The samples were digested overnight with 2 μL trypsin in 50 mM ammonium bicarbonate solution at an enzyme-to-substrate ratio of 1:50 (w/w). The trypsin digest was collected and washed with 50 μL NaCl solution (500 mM). The peptides were desalted by the MonoSpin C18 (GL Sciences). Subsequently, the eluents were dried by the vacuum pump and resolved in 40 μL 0.1% formic acid for analyses (please refer to the Supplementary Material for more details).

Q: Which half-life [1] does the source give for `CC(=O)O[C@H](C[C@@H](C)C1=C2C[C@H](O)C3[C@@]4(C)CCC(=O)C(C)(C)C4CC[C@]3(C)[C@@]2(C)CC1)[C@H]1OC1(C)C` (stereo partly shown) [AB23A, Alisol B 23-acetate] here?
A: 41 ± 0.01 min

Q: And the half-life [2]?
A: 9.5 ± 0.05 min

Q: What about the half-life [3] of the same compound?
A: 2.3 ± 0.01 min

Q: And the “K m of AB23A hydrolysis” value (hCES2A)?
A: 58.96 ± 2.41 µM

Q: And the “K m of AB23A hydrolysis” value (hBchE)?
A: 35.78 ± 3.40 µM

Q: And the “K m of AB23A hydrolysis” value [4]?
A: 41.18 ± 3.46 µM

Q: And the “V max of AB23A hydrolysis” value [4]?
A: 4.77 ± 0.08 nmol/min/mg protein and 4.77 ± 0.08 ^a nmol/min/mg protein

Q: And the “K m of AB23A hydrolysis” value [5]?
A: 237.10 ± 15.00 µM

Q: And the “V max of AB23A hydrolysis” value [5]?
A: 4.536 ± 0.09 nmol/min/mL and 4.536 ± 0.09 ^b nmol/min/mL

Q: What about the “Number of lysines in hSA acylated by AB23A” value (hSA) of the same compound?
A: 39
